Data reported in patent publication US20080003184A1, “Superparamagnetic Gadolinium Oxide Nanoscale Particles and Compositions Comprising Such Particles” (priority 2004, published 2008).
Read-outs that look alike come from different tables or passages of the source.

How the values were obtained:
[1] = Relaxation time measurements (T1, T2 relaxivity) in H2O, 1.5 T scanner; format: physicochemical; details: 22-23° C.
Method: (§1) Samples of Gd2O3-DEG from Example 1 (with an average particle size of about 5 nm and a particle size range from about 1 to 15 nm) and Gd-DTPA (Magnevist®) were prepared in 10 mm NMR test tubes with H2O at 9 different Gd concentrations from […]. At measurement the test tubes were immersed in a bowl with saline at 22-23° C., which was the temperature of the scanner room.
(§2) T1 and T2 relaxation times were measured with a 1.5 T Philips Achieva whole body scanner using the head coil. A 2D mixed multi-echo SE interleaved with multi-echo IR sequence was used for the measurements [kleef_mrm—1987]. Imaging time parameters were varied to minimise the standard deviations in relaxation time calculations: TE=30 ms, TR (SE)=500 ms, TI=150 ms, and TR (IR)=1150 ms (set 1); TE=50 ms, TR (SE)=760 ms, TI=370 ms, and TR (IR)=2290 ms (set 2). Other MR parameters were: FOV=23 cm, slice thickness=7 mm, number of echoes=4.
In addition, samples of Gd2O3-DEG and Resovist® were prepared and tested under the same conditions as above. There were 6 different Gd and Fe concentrations between 0.1 and 1.5 mM. Resovist® is based on ferrocarbotran colloidal sol of superparamagnetic iron oxide nanoparticles (SPIO). The particles have a hydrodynamic diameter of 60 nm on an iron core of 4 nm. […] Accordingly, Gd2O3-DEG particles enable a contrast agent with complementary properties to those based on SPIO.

[2] = Signal intensity from first echo of spin echo sequence (TE=30 ms, TR=500 ms); format: physicochemical
Method: as §1, §2
At higher concentrations (>0.9 mM) the strong T2 effect attenuated the signal for the nanoparticle samples. That is, the Gd2O3 sample reached the signal intensity peak at lower concentrations (0.6 mM) compared to the Gd-DTPA signal intensity that peaked at approximately 1.2 mM in this sequence.
In addition, samples of Gd2O3-DEG and Resovist® were prepared and tested under the same conditions as above. There were 6 different Gd and Fe concentrations between 0.1 and 1.5 mM. […]

THP-1 cells = experiment: Monocyte studies: incubation, washing, T1/T2 measurement; format: cell-based; details: 0.1-0.9 mM Gd, 2 h or 8 h at 37° C., washed twice
Method: For monocyte experiments, THP-1 cells were cultured in RPMI 1640 medium with 10% fetal calf serum (GIBCO, Invitrogen, Carlsbad, Calif., USA) with additions of L-glutamate and penicillin/streptomycin solution (Invitrogen). Cells were counted and found 97% viable. Cells were treated with Gd2O3-DEG or Gd-DTPA in concentrations 0.1, 0.3, 0.6, and 0.9 mM. Cells of one well were left untreated. A control series was prepared of cell culture medium only with the different concentrations of Gd2O3-DEG particles. Two plates of 24 wells each were prepared as described above; one was incubated with the Gd2O3-DEG and Gd-DTPA for 2 h and the other one for 8 h at 37° C. After incubation cells were transferred to Falcon tubes and washed twice with medium and centrifugated for 8 minutes at 1100 rpm.

[3] = Magnevist 0.1 mmol/kg, cited from earlier work

For `O=C([O-])CN(CCN(CC(=O)[O-])CC(=O)O)CCN(CC(=O)[O-])CC(=O)O.[Gd+3]` [Gd-DTPA], the r1 relaxivity constant [1] was 4.86 ± 0.08 mM⁻¹ s⁻¹, the r2 relaxivity constant [1] was 5.53 ± 0.14 mM⁻¹ s⁻¹ and the “Gd concentration at signal intensity peak” value [2] was “approximately 1.2 mM”. For the same molecule, the “Presence with cells after the washing procedure” value (THP-1 cells) was “not present in the cell suspension after the washing”, the “detected plasma concentration of Gd” value ([3]; 3 minutes after injection) was 0.6 mM and the “detected plasma concentration of Gd” value ([3]; 60 minutes after injection) was 0.24 mM.
